The values below come from patent US8278345B2, “Inhibitors of glutaminyl cyclase” (Probiodrug AG, priority 2006, dated 2012).

SMILES strings stand for the structures. Where two headings read alike, the source gives them in different places.

What is called IC50 is the concentration needed to halve the response being measured. As a reminder, the Ki is a measure of affinity in units of concentration, obtained from inhibition or displacement.

The experiment has as its target hQC (Homo sapiens, UniProt Q16769). Description: Inhibitor assay for glutaminyl cyclase activity (fluorometric, H-Gln-βNA / H-Gln-AMC). It counts as biochemical. The method, then: All measurements were performed with a BioAssay Reader HTS-7000Plus for microplates (Perkin Elmer) at 30° C. QC activity was evaluated fluorometrically using H-Gln-βNA. The samples consisted of 0.2 mM fluorogenic substrate, 0.25 U pyroglutamyl aminopeptidase (Unizyme, Hørsholm, Denmark) in 0.2 M Tris/HCl, pH 8.0 containing 20 mM EDTA and an appropriately diluted aliquot of QC in a final volume of 250 μl. Excitation/emission wavelengths were 320/410 nm. The assay reactions were initiated by addition of glutaminyl cyclase. QC activity was determined from a standard curve of β-naphthylamine under assay conditions. One unit is defined as the amount of QC catalyzing the formation of 1 μmol pGlu-βNA from H-Gln-βNA per minute under the described conditions.
In a second fluorometric assay, QC activity was determined using H-Gln-AMC as substrate. Reactions were carried out at 30° C. utilizing the NOVOStar reader for microplates (BMG labtechnologies). The samples consisted of varying concentrations of the fluorogenic substrate, 0.1 U pyroglutamyl aminopeptidase (Qiagen) in 0.05 M Tris/HCl, pH 8.0 containing 5 mM EDTA and an appropriately diluted aliquot of QC in a final volume of 250 μl. Excitation/emission wavelengths were 380/460 nm. The assay reactions were initiated by addition of glutaminyl cyclase. QC activity was determined from a standard curve of 7-amino-4-methylcoumarin under assay conditions. The kinetic data were evaluated using GraFit sofware.
For inhibitor testing, the sample composition was the same as described above, except of the putative inhibitory compound added. For a rapid test of QC-inhibition, samples contained 4 mM of the respective inhibitor and a substrate concentration at 1 KM. For detailed investigations of the inhibition and determination of Ki-values, influence of the inhibitor on the auxiliary enzymes was investigated first. In every case, there was no influence on either enzyme detected, thus enabling the reliable determination of the QC inhibition. The inhibitory constant was evaluated by fitting the set of progress curves to the general equation for competitive inhibition using GraFit software.

Setting [1] is: compound from preparative synthesis, purified, read-out: IC50 hQC.

hQC, sequence (Q16769 29-361): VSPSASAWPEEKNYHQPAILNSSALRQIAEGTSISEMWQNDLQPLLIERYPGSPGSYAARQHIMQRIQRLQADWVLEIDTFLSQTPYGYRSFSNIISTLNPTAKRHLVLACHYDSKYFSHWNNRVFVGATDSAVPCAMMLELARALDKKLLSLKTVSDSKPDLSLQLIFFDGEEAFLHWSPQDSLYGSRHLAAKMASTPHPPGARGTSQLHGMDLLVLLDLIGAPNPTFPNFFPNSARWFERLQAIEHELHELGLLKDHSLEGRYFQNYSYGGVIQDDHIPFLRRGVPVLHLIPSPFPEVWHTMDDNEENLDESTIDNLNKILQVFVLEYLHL

Regarding `CCC1=C(O)C(=O)N(CCCn2ccnc2)C1c1cc[nH]n1` (stereo not drawn) [Compound 224, 4-Ethyl-3-hydroxy-1-(3-imidazol-1-yl-propyl)-5-(1H-pyrazol-3-yl)-1,5-dihydro-pyrrol-2-one], the IC50 (read-out: IC50) was 1300 nM.
`CC(C)(C)C(=O)C1=C(O)C(=O)N(c2ccc3[nH]cnc3c2)C1c1cc(Br)ccc1F` (stereo not drawn) [Compound 396, 1-(1H-Benzoimidazol-5-yl)-5-(5-bromo-2-fluoro-phenyl)-4-(2,2-dimethyl-propionyl)-3-hydroxy-1,5-dihydro-pyrrol-2-one]: the IC50 (read-out: IC50) was 4450 nM.
Turning to `O=C1C(O)=C(c2ccc(O)cc2)C(C(O)CO)N1CCCn1ccnc1` (stereo not drawn) [Compound 152, 5-(1,2-Dihydroxy-ethyl)-3-hydroxy-4-(4-hydroxy-phenyl)-1-(3-imidazol-1-yl-propyl)-1,5-dihydro-pyrrol-2-one], for the setting “read-out: IC50”, the IC50 came out at 400 nM.
Turning to `CC1=C(O)C(=O)N(CCCn2ccnc2)C1C1CC1` (stereo not drawn) [Compound 46, 5-Cyclopropyl-3-hydroxy-1-(3-imidazol-1-yl-propyl)-4-methyl-1,5-dihydro-pyrrol-2-one], under “read-out: IC50”, the IC50 turned out to be 2200 nM.
Consider `O=C1C(O)=C(c2c[nH]c3ccccc23)C(C2=CCCCC2)N1CCCn1ccnc1` (stereo not drawn) [Compound 129, 5-Cyclohex-1-enyl-3-hydroxy-1-(3-imidazol-1-yl-propyl)-4-(1H-indol-3-yl)-1,5-dihydro-pyrrol-2-one], for which the concentration for half-maximal inhibition (IC50) (read-out: IC50) turned out to be 400 nM.
On to `O=C(C1=C(O)C(=O)N(c2ccc3[nH]cnc3c2)C1c1ccnc2ccccc12)C1CCCCC1` (stereo not drawn) [Compound 293, 1-(1H-Benzoimidazol-5-yl)-4-cyclohexanecarbonyl-3-hydroxy-5-quinolin-4-yl-1,5-dihydro-pyrrol-2-one], for which the IC50 (read-out: IC50) is 220 nM.
Turning to `O=C(C1=C(O)C(=O)N(c2ccc3[nH]cnc3c2)C1c1ccc[nH]1)C1CCCCC1` (stereo not drawn) [Compound 452, 1-(1H-Benzoimidazol-5-yl)-3-cyclohexanecarbonyl-4-hydroxy-1,2-dihydro-1′H-[2,2′]bipyrrolyl-5-one], where the note is “read-out: IC50”, the IC50 amounted to 5080 nM.
`O=C1C(O)=C(c2c[nH]c3ccccc23)C(c2cccc(O)c2)N1CCCn1ccnc1` (stereo not drawn) [Compound 146, 3-Hydroxy-5-(3-hydroxy-phenyl)-1-(3-imidazol-1-yl-propyl)-4-(1H-indol-3-yl)-1,5-dihydro-pyrrol-2-one]: the half-inhibitory concentration (IC50) (read-out: IC50) came to 400 nM.
As for `CCC1=C(O)C(=O)N(CCCn2ccnc2)C1C(F)(F)F` (stereo not drawn) [Compound 240, 4-Ethyl-3-hydroxy-1-(3-imidazol-1-yl-propyl)-5-trifluoromethyl-1,5-dihydro-pyrrol-2-one], the IC50 (read-out: IC50) was found to be 40 nM.
`O=C1C(O)=C(c2cccc(O)c2)C(c2ccc3nsnc3c2)N1c1ccc2[nH]cnc2c1` (stereo not drawn) [Compound 269, 1-(1H-Benzoimidazol-5-yl)-5-benzo[c][1,2,5]thiadiazol-5-yl-3-hydroxy-4-(3-hydroxy-phenyl)-1,5-dihydro-pyrrol-2-one]: the IC50 by setting is: under setting [1], 22.5 nM; (read-out: IC50) 4 nM.
Regarding `CCCC(=O)C1=C(O)C(=O)N(c2ccc3[nH]cnc3c2)C1c1ccc(C)o1` (stereo not drawn) [Compound 256, 1-(1H-Benzoimidazol-5-yl)-4-butyryl-3-hydroxy-5-(5-methyl-furan-2-yl)-1,5-dihydro-pyrrol-2-one], the IC50 was determined as 203 nM under setting [1] and 4 nM (read-out: IC50).
`CC(=O)C1=C(O)C(=O)N(c2ccc3[nH]cnc3c2)C1c1ccc(C)o1` (stereo not drawn) [Compound 415, 4-Acetyl-1-(1H-benzoimidazol-5-yl)-3-hydroxy-5-(5-methyl-furan-2-yl)-1,5-dihydro-pyrrol-2-one]: the IC50 (read-out: IC50) was 1390 nM.
On to `O=C1C(O)=C(c2ccc(O)cc2)C(c2ccncc2)N1CCCn1ccnc1` (stereo not drawn) [Compound 172, 3-Hydroxy-4-(4-hydroxy-phenyl)-1-(3-imidazol-1-yl-propyl)-5-pyridin-4-yl-1,5-dihydro-pyrrol-2-one], for which, where the note is “read-out: IC50”, the IC50 was 7600 nM.
In the case of `CCC1=C(O)C(=O)N(CCCn2ccnc2)C1c1ccc(C)c(C)c1` (stereo not drawn) [Compound 231, 5-(3,4-Dimethyl-phenyl)-4-ethyl-3-hydroxy-1-(3-imidazol-1-yl-propyl)-1,5-dihydro-pyrrol-2-one], for the setting “read-out: IC50”, the IC50 amounted to 400 nM.
Regarding `O=C1C(O)=C(c2ccccc2)C(Cc2ccccc2)N1CCCn1ccnc1` (stereo not drawn) [Compound 99, 5-Benzyl-3-hydroxy-1-(3-imidazol-1-yl-propyl)-4-phenyl-1,5-dihydro-pyrrol-2-one], the IC50 (read-out: IC50) was determined as 40 nM.
For the compound `CCCCCC1=C(O)C(=O)N(CCCn2ccnc2)C1c1cccc(O)c1` (stereo not drawn) [Compound 219, 3-Hydroxy-5-(3-hydroxy-phenyl)-1-(3-imidazol-1-yl-propyl)-4-pentyl-1,5-dihydro-pyrrol-2-one], the IC50 reads like this: under setting [1], 698 nM; (read-out: IC50) 40 nM.
In the case of `CC1=C(O)C(=O)N(c2ccc3[nH]cnc3c2)C1c1cc(F)cc(F)c1F` (stereo not drawn) [Compound 407, 1-(1H-Benzoimidazol-5-yl)-3-hydroxy-4-methyl-5-(2,3,5-trifluoro-phenyl)-1,5-dihydro-pyrrol-2-one], the half-inhibitory concentration (IC50) (read-out: IC50) was found to be 220 nM.
For the compound `O=C(C1=C(O)C(=O)N(c2ccc3[nH]cnc3c2)C1c1cccc(F)c1F)c1ccccc1` (stereo not drawn) [Compound 466, 1-(1H-benzo[d]imidazol-5-yl)-4-benzoyl-5-(2,3-difluorophenyl)-3-hydroxy-1H-pyrrol-2(5H)-one], the affinity (compound from preparative synthesis, purified) corresponds to a Ki of 3.31 nM. In addition, the IC50 (read-out: IC50) turned out to be 39.8 nM.
On to `Cc1cc(C2C(C(=O)C3CC3)=C(O)C(=O)N2c2ccc3[nH]cnc3c2)cc(C)c1O` (stereo not drawn) [Compound 342, 1-(1H-Benzoimidazol-5-yl)-4-cyclopropanecarbonyl-3-hydroxy-5-(4-hydroxy-3,5-dimethyl-phenyl)-1,5-dihydro-pyrrol-2-one], for which, for the setting “read-out: IC50”, the IC50 was determined as 310 nM.
Same read-out and setting: for `CC1=C(O)C(=O)N(CCCn2ccnc2)C1C1CCC=CO1` (stereo not drawn) [Compound 35, 5-(3,4-Dihydro-2H-pyran-2-yl)-3-hydroxy-1-(3-imidazol-1-yl-propyl)-4-methyl-1,5-dihydro-pyrrol-2-one] the value was 2200 nM; for `CC1=C(O)C(=O)N(c2ccc3[nH]cnc3c2)C1c1cc(C)c(C)o1` (stereo not drawn) [Compound 394, 1-(1H-Benzoimidazol-5-yl)-5-(4,5-dimethyl-furan-2-yl)-3-hydroxy-4-methyl-1,5-dihydro-pyrrol-2-one], 9220 nM.
Regarding `CC1=C(O)C(=O)N(CCCn2ccnc2)C1c1cccc(O)c1` (stereo not drawn) [Compound 53, 3-Hydroxy-5-(3-hydroxy-phenyl)-1-(3-imidazol-1-yl-propyl)-4-methyl-1,5-dihydro-pyrrol-2-one], the half-maximal inhibitory concentration (IC50) (read-out: IC50) was determined as 1300 nM.
`CC(C)(C)C(=O)C1=C(O)C(=O)N(c2ccc3[nH]cnc3c2)C1c1cccc(F)c1F` (stereo not drawn) [Compound 383, 1-(1H-Benzoimidazol-5-yl)-5-(2,3-difluoro-phenyl)-4-(2,2-dimethyl-propionyl)-3-hydroxy-1,5-dihydro-pyrrol-2-one]: the IC50 (read-out: IC50) turned out to be 4090 nM.
`CCC1C(c2c[nH]c3ccccc23)=C(O)C(=O)N1CCCn1ccnc1` (stereo not drawn) [Compound 142, 5-Ethyl-3-hydroxy-1-(3-imidazol-1-yl-propyl)-4-(1H-indol-3-yl)-1,5-dihydro-pyrrol-2-one]: the IC50 (read-out: IC50) turned out to be 400 nM.
On to `CCC1=C(O)C(=O)N(CCCn2ccnc2)C1c1ccc(CO)o1` (stereo not drawn) [Compound 234, 4-Ethyl-3-hydroxy-5-(5-hydroxymethyl-furan-2-yl)-1-(3-imidazol-1-yl-propyl)-1,5-dihydro-pyrrol-2-one], for which the IC50 (read-out: IC50) came to 1300 nM.
Regarding `CC1=C(O)C(=O)N(c2ccc3[nH]cnc3c2)C1c1ccco1` (stereo not drawn) [Compound 426, 1-(1H-Benzoimidazol-5-yl)-5-furan-2-yl-3-hydroxy-4-methyl-1,5-dihydro-pyrrol-2-one], where the note is “read-out: IC50”, the IC50 came out at 4 nM.
